Assay results: US6043365A, “Preparation of 2-amino-7-(1-substituted-2-hydroxyethyl)-3, 5-dihydropyrrolo[3,2-d]pyrimidin-4-ones” (Novartis AG, priority 1998, dated 2000)

What was measured:
[1] = system: purine nucleoside phosphorylase (PNP); test: PNP inhibition in vivo: plasma inosine level in mice after oral dose; details: at a dose of e.g. 10 mg/Kg p.o.
Description: Briefly, mice are treated orally with the PNP inhibitor suspended in fortified cornstarch (3% cornstarch suspension in water with 0.33% Tween 80 and 5% PEG 400) at a final volume of 10 ml/kg. One or more hours after a single oral dose of compound, the mice are bled by cardiac puncture into 25 U/ml heparin to obtain plasma. The samples are analyzed for both inosine and drug levels by a gradient reverse-phase high performance liquid chromatography (HPLC) method (see Anal Chem, 1977, 49:2237-41). Quantitation is performed using an internal standard method with 2',3'-dideoxyinosine (DDI) as the internal standard.

[2] = system: CCRF-CEM cells; test: CCRF-CEM cell assay: potentiation of the cell growth inhibitory activity (cytotoxicity) of 2'-deoxyguanosine (d-Guo); assay type: cell-based; details: Homo sapiens, d-Guo 10 μM, 72 hours
Description: The selective suppression of spontaneous T-cell proliferation in vitro is measured by the potentiation of the cell growth inhibitory activity (cytotoxicity) of 2'-deoxyguanosine (d-Guo) by the compounds of the invention, determined as follows: Human CCRF-CEM cells are grown in RPMI-1640 medium. To suspension cultures of these cells, d-Guo at a fixed concentration (10 μM) and the candidate PNP inhibitor at varied concentrations are added and the number of cells are determined in a Coulter counter 24, 48, and 72 hours thereafter. […] This method is similar to that previously used to determine the effectiveness of PNP inhibitors on potentiation of the toxicity of d-Guo. [See D. A. Shewach et al., Cancer Res., 46, 519 (1986); J. C. Sircar et al., Agents and Actions, 21, 253 (1987), also Methods in Pharmacology, D. M. Paten, ed. 1985, pp. 147-162].

[3] = molecular target: T1, purine nucleoside phosphorylase (PNP) (Bos taurus, UniProt P55859); test: PNP inhibition in vitro, enzymic determination of inorganic phosphate (PNP/xanthine oxidase), calf spleen PNP; assay type: biochemical; details: 1 mM phosphate concentration; calf spleen PNP; substrate inosine
T1 construct: Calf spleen PNP is used as the enzyme source; from tissue; host or cells: calf spleen
T1 sequence (P55859 1-289): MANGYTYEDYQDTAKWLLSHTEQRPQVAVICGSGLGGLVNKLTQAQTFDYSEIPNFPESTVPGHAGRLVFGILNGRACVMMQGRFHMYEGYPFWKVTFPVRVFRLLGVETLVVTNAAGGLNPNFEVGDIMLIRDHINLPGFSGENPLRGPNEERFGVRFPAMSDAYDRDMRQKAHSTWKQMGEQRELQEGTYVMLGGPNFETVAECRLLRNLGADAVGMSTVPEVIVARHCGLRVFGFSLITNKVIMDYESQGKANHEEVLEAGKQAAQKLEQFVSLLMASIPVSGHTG
Description: PNP inhibition can be measured by measuring the formation of [^14- C]-[…] [Biomedicine, 33, 39 (1980)] using calf spleen as the enzyme source and 1 or 50 mM phosphate. Results are expressed as IC50 values, corresponding to the concentration of compound required to achieve a 50% reduction of the formation of hypoxanthine.
PNP inhibition can also be determined in vitro as follows: An enzymic method for the determination of inorganic phosphate (see Chem. Pharm. Bull., 1981, 29:1451-5), based on the principle of forming hydrogen peroxide with purine nucleoside phosphorylase (PNP) and xanthine oxidase, is used to calorimetrically measure the degree of linkage between enzyme and substrate (inosine). Calf spleen PNP is used as the enzyme source. The IC50 values for the compounds studied are determined graphically at two phosphate concentrations (1 and 50 mM) from a plot of percent inhibition versus compound concentration.

[4] = system: collagen II induced arthritis; test: Antiarthritic activity, collagen II induced arthritis in mice model; assay type: in vivo, DBA/1LacJ female mice; details: 20 mg/Kg/day; orally once daily, day 1 through day 42
Description: The antiarthritic activity can be determined in the collagen II induced arthritis in mice model. DBA/1LacJ female mice, 6-8 weeks old, are immunized with 100 μg of chicken type II collagen emulsified in Freund's complete adjuvant (FCA) by injecting at the base of the tail on day 0. On day 17 after collagen injection, the immune response to type II collagen is boosted with a subcutaneous injection of 200 μg LPS solubilized in PBS. Paws are examined on days 17, 21, 24, 28, 31, 35, and 42 and scored for the symptoms of arthritis based on criteria such as inflammation, swelling and ankylosis. Compounds are suspended in corn starch vehicle and administered orally to mice once daily beginning on day 1 and continuing through day 42.

[5] = system: transplant rejection; test: Protection against transplant rejection, mouse tail skin transplantation procedure; assay type: in vivo, mouse (C57BL/10-SnJ and B10.BR/SgSnJ)
Description: Protection against transplant rejection can be determined in a mouse tail skin transplantation procedure.
Mice are anesthetized with tribromoethanol i.p. injection according to the method of Papaioannou and Fox (Lab. Animal Science 1993;43:189-92). The mouse tail skin transplant rejection model is a modification of that described by Baily and Usama, (Transpl. Bull. 1960;7:424-5). Four skin grafts per mouse are exchanged between strains [C57BL/10-SnJ (H-2K^b) and B10.BR/SgSnJ (H-2K^k)] at surgery (d0). Fitted skin grafts are made with a scalpel, and tail graft sites are protected with tubing for 2 days following surgery. Mouse tails are evaluated at day 7 for missing grafts. Only those graft sites that have patent grafts at day 7 are evaluated at later scoring intervals. Grafts are scored numerically for signs of rejection at ~weekly scoring intervals starting day 14. Dose-group mean graft scores are compared statistically.

Row | SMILES | plasma level of inosine [1] | IC50 [2] | IC50 [3] | antiarthritic activity [4] | protection against transplant rejection ([5]; 50 mg/Kg/day, mouse) | transplant rejection model, combination with cyclosporin ([5]; combination of compound and cyclosporin vs either alone)
1 | Nc1nc2c([C@@H](CO)c3ccccc3)c[nH]c2c(=O)[nH]1 [Example 3f, 2-Amino-7-(2(S)-hydroxy-1-phenylethyl)-3,5-dihydro-4H-pyrrolo[3,2-d]-pyrimidin-4-one] | significant increase in the plasma level of inosine | ~100 nM | ~10 nM |  |  | 
2 | Nc1nc2c([C@@H](CO)c3ccccc3F)c[nH]c2c(=O)[nH]1 [Example 1, 2-amino-7-[1-(2-fluorophenyl)-2(R)-hydroxyethyl]-3,5-dihydro-4H-pyrrolo[3,2-d]pyrimidin-4-one] | significant increase in the plasma level of inosine | ~75 nM | ~10 nM | effective | effective in protecting against transplant rejection | superior to either cyclosporin or the PNP inhibitor alone
